Test results published in US20060058346A1, “Novel enantiomers of etrahydroisoquinoline derivatives and theirpharmaceutically acceptable salts, their preparations and pharmaceutical compositions” (priority 2002, published 2006).

Assays:
LPS-injected rat = test: Serum/plasma level of nitrate/nitrite (NOx) in LPS-injected rat; type: in vivo; conditions: 10 mg/kg compound; LPS 20 mg/kg
Protocol: The rats were divided into three groups; (1) LPS-injected group (LPS was administered to abdominal cavity in an amount of 20 mg/kg), (2) enantiomer-injected group (LPS+the compounds represented by formula 3 to 8 was administered to abdominal cavity) or (3) saline solution-injected group. After administration of LPS, the rats were anaesthetized with pentobarbital. The blood was collected from rats by using heart punching. The plasma level of nitrite was measured by using the nitrate reductase derived from Aspergillus species, where the nitrate was reduced by enzyme. Particularly, the plasma was diluted with distilled water in a ratio of 1:10. Analysis buffering solution (KH2PO4 50 Mm, NADPH 0.6 Mm, FAD 5 Mm and nitrate reductase 10 U/ml, Ph 5.5) was added to the said plasma. Thereafter, the reaction was accomplished at 37° C. for 30 min. The plasma level of nitrite was measured by using sodium nitrite as a standard, and Griess solution. Standard curve to nitrite was calculated from the result derived from incubation in analysis buffering solution.

[1] = test system: RAW 264.7 macrophage cells; test: Nitric oxide production in macrophage cell stimulated by LPS (Griess); type: cell-based; conditions: for NO production by LPS in macrophage cell: LPS 1 μg/ml; for inhibition of production of NO: LPS-stimulated macrophage cell
Protocol: RAW 264.7 macrophage cells were plated on 100 mm culture dishes at a density of 1-2×10^5 cells. Thereafter, the said macrophage cell was incubated in DMEM medium containing 10% fetal calf serum (heat-inactivated), 100 U/ml penicillin, and […] streptomycin in a CO2 incubator. The said macrophage cell was incubated therein confluently. The said incubated macrophage cells were transferred to serum-free DMEM medium, and further incubated therein for about 24 hours. Thereafter, macrophage cells were stimulated with LPS (1 μg/ml) for about 8 hours. (In this progress, experimental group was divided into two groups, group to which the compound was administered, and group to which the compound was not.) Then, nitrite quantification was achieved by performing calorimetric reaction for produced nitrite with Griess reagent and then measuring absorbance at 550 nm, while using NaNO2 as a standard.

iNOS = test: Expression of iNOS stimulated by LPS in macrophage cell, Western blotting; type: cell-based; conditions: LPS 1 μg/ml; 10, 50, 100 μM; FIG. 1
Protocol: Macrophage cells (RAW 264.7 cell) were plated on 100 mm culture dishes at a density of 1-2×10^5 cells and incubated in DMEM medium containing 10% fetal calf serum (heat-inactivated), 100 U/ml penicillin, and […] streptomycin in a CO2 incubator. When being grown to complete confluence, macrophage cell was inoculated in serum-free DMEM medium, and further incubated for about 24 hours. Thereafter, macrophage cells were stimulated in the presence of LPS (1 μg/ml) and each of the compounds represented by the formulas 3 to 8 for about 12 hours. Total protein was isolated from the macrophage cells. The isolated protein was quantified by using Bradford method. 10 μg of isolated protein was loaded in SDS-PAGE electroporesis gel. The said gel was transferred to PVDF membrane. Anti-iNOS antibody was added to the said gel, thereafter disposed at 4° C. overnight. Thereafter, secondary antibody was added to the said gel, reacted for 1 hour at the room temperature and sensitized using ECL. Expression of protein was quantified, compared to the expressed Actin.

Oc1ccc(C[C@@H]2NCCc3cc(O)c(O)cc32)cc1 [Formula 3, (S)-6,7-Dihydroxy-1-(p-hydroxyphenylmethyl)-1,2,3,4-tetrahydroisoquinoline]
plasma level of NOx (LPS-injected rat): 29 ± 3 µM | NO production by LPS in macrophage cell ([1]; compound 10 μM): 30.5 µM | NO production by LPS in macrophage cell ([1]; compound 50 μM): 22.3 µM | NO production by LPS in macrophage cell ([1]; compound 100 μM): 18.2 µM | expression of iNOS protein (iNOS): inhibited expression of iNOS protein strongly than R-enantiomer

Oc1ccc(C[C@H]2NCCc3cc(O)c(O)cc32)cc1 [Formula 4, (R)-6,7-Dihydroxy-1-(p-hydroxyphenylmethyl)-1,2,3,4-tetrahydroisoquinoline]
plasma level of NOx (LPS-injected rat): 85 ± 7 µM | inhibition of production of NO [1]: inhibited production of NO weakly than S-enantiomer did | NO production by LPS in macrophage cell ([1]; compound 10 μM): 20.1 µM | NO production by LPS in macrophage cell ([1]; compound 50 μM): 10.3 µM | NO production by LPS in macrophage cell ([1]; compound 100 μM): 8.2 µM

Oc1cc2c(cc1O)[C@H](Cc1cccc3ccccc13)NCC2 [Formula 5]
inhibition of production of NO [1]: strongly inhibited production of NO | NO production by LPS in macrophage cell ([1]; compound 10 μM): 21.3 µM | NO production by LPS in macrophage cell ([1]; compound 50 μM): 14.8 µM | NO production by LPS in macrophage cell ([1]; compound 100 μM): 14.2 µM | expression of iNOS protein (iNOS): inhibited expression of iNOS protein strongly than R-enantiomer

Oc1cc2c(cc1O)[C@@H](Cc1cccc3ccccc13)NCC2 [Formula 6, (R)-6,7-Dihydroxy-1-(α-naphthylmethyl)-1,2,3,4-tetrahydroisoquinoline]
inhibition of production of NO [1]: never or slightly inhibited production of NO | NO production by LPS in macrophage cell ([1]; compound 10 μM): 36 µM | NO production by LPS in macrophage cell ([1]; compound 50 μM): 34 µM | NO production by LPS in macrophage cell ([1]; compound 100 μM): 38 µM

Oc1cc2c(cc1O)[C@H](Cc1ccc3ccccc3c1)NCC2 [Formula 7, (S)-6,7-Dihydroxy-1-(β-naphthylmethyl)-1,2,3,4-tetrahydroisoquinoline]
inhibition of production of NO [1]: strongly inhibited production of NO | NO production by LPS in macrophage cell ([1]; compound 10 μM): 31.2 µM | NO production by LPS in macrophage cell ([1]; compound 50 μM): 15.2 µM | NO production by LPS in macrophage cell ([1]; compound 100 μM): 9.4 µM | expression of iNOS protein (iNOS): inhibited expression of iNOS protein strongly than R-enantiomer

Oc1cc2c(cc1O)[C@@H](Cc1ccc3ccccc3c1)NCC2 [Formula 8, (R)-6,7-Dihydroxy-1-(β-naphthylmethyl)-1,2,3,4-tetrahydroisoquinoline]
inhibition of production of NO [1]: never or slightly inhibited production of NO | NO production by LPS in macrophage cell ([1]; compound 10 μM): 46 µM | NO production by LPS in macrophage cell ([1]; compound 50 μM): 42 µM | NO production by LPS in macrophage cell ([1]; compound 100 μM): 40 µM
